# Experimental data reported in US20250026765A1, “SPIROHETEROCYCLE DERIVATIVE HAVING SEROTONIN RECEPTOR BINDING ACTIVITY” (Shionogi & Co., Ltd., priority 2021, published 2025).
# Where two headings read alike, the source gives them in different places.
# What was measured:
# [1] = biological target: human recombinant 5-HT2A receptor (Homo sapiens (Human), UniProt P28223); test: 5-HT2A receptor binding inhibition test ([3H]-Ketanserin); conditions: Jump-In HEK cell membrane, 25° C. 1.5 hours
# In short: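 Membranes from Jump-In HEK cells expressing the receptor were incubated with [3H]-ketanserin at about its Kd (from Scatchard analysis) in Tris-HCl pH 7.4 buffer for 1.5 h at 25° C, then filtered and counted. Non-specific binding was defined with 500 μmol/L serotonin, and Ki was taken from dose-response curves.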
# [2] = biological target: human ether-a-go-go related gene (hERG) channel (Homo sapiens (Human), UniProt Q12809); test: hERG test (FluxOR II potassium channel assay, FLIPR); type: cell-based; conditions: CHO cells expressing hERG channel, thallium flux fluorescence, 10 minutes
# Description: Test Example 3: hERG Test
# For the purpose of evaluating risk of an electrocardiogram QT interval prolongation of the compound of the present invention, effects of the compound are studied by evaluating the activity of potassium channel using CHO cells expressing human ether-a-go-go related gene (hERG) channel.
# Evaluation is performed using a FluxORII Green Potassium IonCgannel Assay kit
# (Invitrogen: Molecular Probes).
# Cells are seeded in a 384-assay plate (8000 cells/well/40 μL) and incubated (37° C., […] overnight. After replacing the medium with a Wash buffer (1×HBSS, 20 mM HEPES) with a microplate washer, a fluorescent indicator is added to the medium and allowed to incubate (37° C., 5% CO2) for 1 hour for incorporation of the fluorescent indicator into cells.
# A cell plate is placed on a cell-based kinetic assay system FLIPR (Molecular Devices, LLC.), and the compound is added to the cells so as to have a desired concentration and reacted for 10 minutes. When a mixed solution of potassium and thallium as a stimulator is added thereto, the potassium channel is opened, and thallium that flowed into the cells binds to the fluorescent indicator, so that the intracellular fluorescence signal increases, and the potassium channel current is detected as a fluorescence signal. For the inhibition rate at each concentration, the signal intensity when E-4031 is added to cells at a final concentration of 10.3 μmol/L is defined as an inhibition rate of 100%, and the signal intensity when DMSO is added to cells at a final concentration of 0.5% is defined as an inhibition rate of 0%. Then, the inhibition rate is calculated from the signal intensity at each concentration. IC50 is calculated from the inhibition rate at each concentration.
# [3] = read-out: human serotonin 5-HT2A receptor binding activity Ki
# Sequence of human recombinant 5-HT2A receptor (P28223 whole entry): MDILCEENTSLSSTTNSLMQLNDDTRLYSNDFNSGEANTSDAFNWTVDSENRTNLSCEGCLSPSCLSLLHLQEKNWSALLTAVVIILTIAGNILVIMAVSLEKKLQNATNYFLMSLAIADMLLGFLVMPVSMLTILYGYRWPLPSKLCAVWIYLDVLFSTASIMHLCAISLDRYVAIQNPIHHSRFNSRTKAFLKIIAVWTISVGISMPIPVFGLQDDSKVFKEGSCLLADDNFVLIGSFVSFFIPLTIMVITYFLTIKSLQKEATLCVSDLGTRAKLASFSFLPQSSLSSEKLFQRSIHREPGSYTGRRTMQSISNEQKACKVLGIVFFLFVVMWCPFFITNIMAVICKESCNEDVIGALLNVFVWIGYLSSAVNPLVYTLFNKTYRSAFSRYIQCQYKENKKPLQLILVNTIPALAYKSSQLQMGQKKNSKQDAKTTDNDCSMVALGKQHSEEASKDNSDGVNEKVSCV
# Sequence of human ether-a-go-go related gene (hERG) channel (Q12809 whole entry): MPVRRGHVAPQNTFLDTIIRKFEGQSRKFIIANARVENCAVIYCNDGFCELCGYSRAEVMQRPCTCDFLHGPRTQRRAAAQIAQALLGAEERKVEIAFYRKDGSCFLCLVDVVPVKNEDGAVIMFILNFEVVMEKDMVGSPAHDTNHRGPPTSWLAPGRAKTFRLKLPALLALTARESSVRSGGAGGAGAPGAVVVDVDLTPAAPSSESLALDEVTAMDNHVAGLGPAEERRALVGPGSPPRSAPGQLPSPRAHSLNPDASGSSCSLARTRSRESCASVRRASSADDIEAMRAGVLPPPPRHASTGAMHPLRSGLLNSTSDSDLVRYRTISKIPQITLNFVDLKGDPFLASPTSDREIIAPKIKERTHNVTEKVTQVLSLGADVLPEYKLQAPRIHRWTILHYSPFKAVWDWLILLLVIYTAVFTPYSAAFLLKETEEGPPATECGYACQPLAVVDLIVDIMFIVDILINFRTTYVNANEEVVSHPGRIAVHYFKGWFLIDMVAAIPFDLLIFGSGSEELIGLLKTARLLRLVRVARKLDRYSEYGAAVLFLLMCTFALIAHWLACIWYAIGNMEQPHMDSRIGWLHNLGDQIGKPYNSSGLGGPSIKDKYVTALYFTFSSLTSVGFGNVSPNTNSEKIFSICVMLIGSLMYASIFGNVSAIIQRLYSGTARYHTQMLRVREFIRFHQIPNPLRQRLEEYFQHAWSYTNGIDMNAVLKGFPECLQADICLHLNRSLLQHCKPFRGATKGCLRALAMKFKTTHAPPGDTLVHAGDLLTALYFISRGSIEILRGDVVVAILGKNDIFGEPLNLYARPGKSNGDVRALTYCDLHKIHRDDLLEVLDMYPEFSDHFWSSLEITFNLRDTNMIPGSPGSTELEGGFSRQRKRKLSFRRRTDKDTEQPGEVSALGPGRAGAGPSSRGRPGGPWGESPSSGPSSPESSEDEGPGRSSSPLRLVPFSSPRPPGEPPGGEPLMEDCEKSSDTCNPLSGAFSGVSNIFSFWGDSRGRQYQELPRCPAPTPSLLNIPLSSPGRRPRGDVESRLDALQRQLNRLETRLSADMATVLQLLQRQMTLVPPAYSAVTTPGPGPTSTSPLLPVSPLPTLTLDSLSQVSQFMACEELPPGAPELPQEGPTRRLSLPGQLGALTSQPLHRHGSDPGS
"Ki [1, 3] [nM]",SMILES,IC50 [2] [nM],Ki ([1]; read-out: h-5-HT2A Ki) [nM]
1.36,Cc1nc(CN(Cc2ccc(OCC(C)C)cc2F)C2=NOC3(CCN(C)CC3)N2)co1 [Compound I-128],> 52000,–
0.74,CCCCOc1ccc(CN(Cc2coc(C)n2)C2=NOC3(CCN(C)CC3)N2)c(F)c1 [Compound I-114],> 52000,–
1.26,Cc1nc(CN(Cc2ccc(CCC(F)(F)F)cc2)C2=NOC3(CCN(C)CC3)N2)co1 [Compound I-125],20000,–
0.703,CCCCOc1ccc(CN(Cc2coc(C)n2)C2=NOC3(CCN(C)CC3)N2)cc1F [Compound I-115],> 52000,–
1.2,CCCCOc1ccc(CN(Cc2cnn(C)n2)C2=NOC3(CCN(C)CC3)N2)cc1 [Compound I-113],> 52000,–
0.979,CCCCOc1ccc(CN(Cc2coc(CF)n2)C2=NOC3(CCN(C)CC3)N2)cc1 [Compound I-105],17900,–
1.56,Cc1nc(CN(Cc2ccc(OCC(F)(F)C(F)(F)F)cc2F)C2=NOC3(CCN(C)CC3)N2)co1 [Compound I-104],20600,–

SMILES,"Ki [1, 3] [nM]",IC50 [2] [nM],Ki ([1]; read-out: h-5-HT2A Ki) [nM]
CCCCOc1ccc(CN(Cc2coc(C)n2)C2=NOC3(CCN(C)CC3)N2)cc1 [Compound I-080],0.823,> 52000,< 10
CC(C)COc1ccc(CN(Cc2coc(CF)n2)C2=NOC3(CCN(C)CC3)N2)cc1 [Compound I-067],1.37,16300,< 10
